Measurements published in patent US8686150B2 (Sanofi, priority 2011, dated 2014).

Target: T1, human full-length recombinant PKC βII (Homo sapiens, UniProt P05771)
T1 construct: Active human full-length recombinant PKC βII; purchased Invitrogen GmbH, Darmstadt, Germany
Experiment: Determination of PKC βII inhibition (Caliper mobility-shift kinase assay, Fluorescein-RFARKGSLRQKNV peptide substrate)
Type: biochemical
Conditions: example compounds at a final concentration of 1.14 μM (±0.15 μM)
Procedure, shortened: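 Full-length PKC βII (30 ng/ml in pre-dilution) with PS/DAG/Ca2+ activators, pH 7.4; fluorescein peptide and ATP at 3 μM and 120 μM before mixing. Reaction ran 60 min at 32 °C, was EDTA-stopped, and was read by mobility shift. % inhibition came from product/(substrate+product) peak heights, tested at 1.14 μM final.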

T1 sequence (P05771 1-673 isoform P05771-2): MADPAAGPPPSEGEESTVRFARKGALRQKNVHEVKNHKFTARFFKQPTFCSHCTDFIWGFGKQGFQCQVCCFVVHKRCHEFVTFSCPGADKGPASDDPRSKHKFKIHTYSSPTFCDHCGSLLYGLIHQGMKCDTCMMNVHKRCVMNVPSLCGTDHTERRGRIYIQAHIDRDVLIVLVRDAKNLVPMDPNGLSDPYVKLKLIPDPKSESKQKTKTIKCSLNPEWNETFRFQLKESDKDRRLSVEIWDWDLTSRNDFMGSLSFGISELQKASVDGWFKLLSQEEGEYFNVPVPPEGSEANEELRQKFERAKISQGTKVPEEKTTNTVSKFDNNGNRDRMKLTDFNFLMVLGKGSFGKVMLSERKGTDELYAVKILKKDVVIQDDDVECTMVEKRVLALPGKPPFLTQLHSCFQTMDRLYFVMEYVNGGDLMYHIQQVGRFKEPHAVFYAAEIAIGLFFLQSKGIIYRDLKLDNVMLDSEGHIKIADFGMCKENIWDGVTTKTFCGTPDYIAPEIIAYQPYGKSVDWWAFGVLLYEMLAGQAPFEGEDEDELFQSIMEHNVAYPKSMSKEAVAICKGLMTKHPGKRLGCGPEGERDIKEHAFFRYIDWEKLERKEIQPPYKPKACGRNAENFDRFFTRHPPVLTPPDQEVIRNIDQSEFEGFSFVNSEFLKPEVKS

Row | Compound | inhibition at 1.14 µM [%]
1 | Cc1n[nH]c2nc(-c3ccc(O)c(F)c3)cc(C(=O)N3CC(=O)NC(C(C)C)C3)c12 (stereo not shown) [Example 368, 4-[6-(3-Fluoro-4-hydroxy-phenyl)-3-methyl-1H-pyrazolo[3,4-b]pyridine-4-carbonyl]-6-isopropyl-piperazin-2-one] | 58
2 | Cc1n[nH]c2nc(-c3ccc(O)c(F)c3)cc(C(=O)N3CC(N)C3)c12 [Example 315, (3-Amino-azetidin-1-yl)-[6-(3-fluoro-4-hydroxy-phenyl)-3-methyl-1H-pyrazolo[3,4-b]pyridin-4-yl]-methanone] | 62
3 | Cc1n[nH]c2nc(-c3ccc(O)c(F)c3)cc(C(=O)NCC3CCCCN3)c12 (stereo not shown) [Example 367, 6-(3-Fluoro-4-hydroxy-phenyl)-3-methyl-1H-pyrazolo[3,4-b]pyridine-4-carboxylic acid (piperidin-2-ylmethyl)-amide] | 36
4 | Cc1n[nH]c2nc(-c3ccc(O)cc3)cc(C(=O)N3CC(=O)N4CCCCC4C3)c12 (stereo not shown) [Example 266, 2-[6-(4-Hydroxy-phenyl)-3-methyl-1H-pyrazolo[3,4-b]pyridine-4-carbonyl]-octahydro-pyrido[1,2-a]pyrazin-4-one] | 39
5 | Cc1n[nH]c2nc(-c3ccc(O)cc3)cc(C(=O)N3CCNC(C)(C)C3)c12 [Example 198, (3,3-Dimethyl-piperazin-1-yl)-[6-(4-hydroxy-phenyl)-3-methyl-1H-pyrazolo[3,4-b]pyridin-4-yl]-methanone] | 99
6 | Cc1n[nH]c2nc(-c3ccc(O)cc3F)cc(C(=O)N3CCNCC3(C)C)c12 [Example 56, (2,2-Dimethyl-piperazin-1-yl)-[6-(2-fluoro-4-hydroxy-phenyl)-3-methyl-1H-pyrazolo[3,4-b]pyridin-4-yl]-methanone] | 96
7 | Cc1n[nH]c2nc(-c3ccc(O)cc3)cc(C(=O)NCC(C)(CN3CCCC3)c3ccccn3)c12 (stereo not shown) [Example 286, 6-(4-Hydroxy-phenyl)-3-methyl-1H-pyrazolo[3,4-b]pyridine-4-carboxylic acid (2-methyl-2-pyridin-2-yl-3-pyrrolidin-1-yl-propyl)-amide] | 62

Further lines, results first:

Row | inhibition at 1.14 µM [%] | Compound
8 | 46 | CCc1n[nH]c2nc(-c3ccc(O)cc3)cc(C(=O)NC3CCCN(CC)C3)c12 (stereo not shown) [Example 175, 3-Ethyl-6-(4-hydroxy-phenyl)-1H-pyrazolo[3,4-b]pyridine-4-carboxylic acid (1-ethyl-piperidin-3-yl)-amide]
9 | 99 | Cc1n[nH]c2nc(-c3ccc(O)cc3F)cc(C(=O)N3C(C)CNCC3C)c12 (stereo not shown) [Example 444, (2,6-Dimethyl-piperazin-1-yl)-[6-(2-fluoro-4-hydroxy-phenyl)-3-methyl-1H-pyrazolo[3,4-b]pyridin-4-yl]-methanone]
10 | 95 | Cc1n[nH]c2nc(-c3ccc(O)cc3)cc(C(=O)N3CCNCC3c3ccc(F)c(F)c3)c12 (stereo not shown) [Example 92, [2-(3,4-Difluoro-phenyl)-piperazin-1-yl]-[6-(4-hydroxy-phenyl)-3-methyl-1H-pyrazolo[3,4-b]pyridin-4-yl]-methanone]
11 | 99 | Cc1n[nH]c2nc(-c3ccc(O)cc3)cc(C(=O)N3CC4CNCC4C3)c12 (stereo not shown) [Example 192, (Hexahydro-pyrrolo[3,4-c]pyrrol-2-yl)-[6-(4-hydroxy-phenyl)-3-methyl-1H-pyrazolo[3,4-b]pyridin-4-yl]-methanone]
12 | 73 | C[C@H]1CN(C(=O)c2cc(-c3ccc(O)cc3)nc3[nH]nc(C(F)(F)F)c23)CCN1 [Example 397, [6-(4-Hydroxy-phenyl)-3-trifluoromethyl-1H-pyrazolo[3,4-b]pyridin-4-yl]-((S)-3-methyl-piperazin-1-yl)-methanone]
13 | 87 | Cc1n[nH]c2nc(-c3ccc(O)cc3)cc(C(=O)N3CCCN(C)CC3)c12 [Example 269, [6-(4-Hydroxy-phenyl)-3-methyl-1H-pyrazolo[3,4-b]pyridin-4-yl]-(4-methyl-[1,4]diazepan-1-yl)-methanone]
